According to US5556744A, “Methods and compositions for diagnosing and treating certain HIV infected patients” (The Trustees of the University of Pennsylvania, priority 1994, dated 1996):

Tested on: maternal HIV+ sera (antibodies)
Test: RIA / ELISA binding of maternal HIV+ sera to gp120 and gp41 peptides (Example 3)
Parameters: species or system human
Description: Radioimmunoassay (RIA) and enzyme-linked immunosorbent assay (ELISA) were performed by standard methodologies [E. Engvall, Meth. Immunol., 70:419-439 (1980); S. K. Pierce et al, J. Exp. Med., 144:1254-1262 (1976)]. Peptides were dissolved in 0.05M carbonate-bicarbonate buffer (pH 9.6) at a concentration of 10 μg/ml. Fifty μl (500 ng) of the peptides were immobilized in 96 well polyvinylchloride plates (Dynatech Laboratories, Inc.) overnight at 4° C. Plates were washed and non-specific sites were blocked with PBS containing 1% BSA overnight at 4° C.
Dilutions of HIV positive maternal sera were made in blocking buffer at dilutions of 1:50 and 1:500 and incubated in peptide coated plates overnight at 4° C. Plates were washed with PBS and incubated with 75,000 cpm of ^125 I-labelled goat anti-human IgG. The antibody was iodinated by a chloramine T method [W. V. Williams et al, Proc. Natl. Acad. Sci. USA, 85:6488-6492 (1988)]. Plates were washed, dried and counted in a gamma counter to measure specific binding. Normal human serum (i.e., HIV seronegative) was used as a control.
Alternatively, ELISA assays were performed in polystyrene plates (Dynatech Laboratories, Inc) in which 0.05% Tween 20 (Sigma Chemical Co.) was included in the washing, blocking and dilution buffers. The secondary antibody used was goat […] Ig conjugated to horseradish peroxidase (HRP) (Sigma Chemical Co). The substrate used for color development was 3,3',5,5' tetramethyl-benzidine dihydrochloride (TMB) (Sigma Chemical Co). Absorbance of samples was measured in a Dynatech MR5000 (Dynatech Laboratories, Inc.) plate reader and expressed as an optical density at wavelength of 450 nm (OD450).
The following key is used for the designation of specific binding of the maternal sera samples to the peptides: The minus sign, -, is equivalent to the specific OD450 or cpm of sera sample binding to peptide divided by the specific OD450 or cpm of NHS sample binding to peptide, which value is less than 2. The plus sign, +, is equivalent to the specific OD450 or cpm of sera sample binding to peptide divided by the specific OD450 or cpm of NHS sample binding to peptide, which value is between 2 to 3.
Specific binding is defined as the difference between the OD450 or cpm of sera to wells with peptide and the OD450 or cpm of sera to wells without peptide.
Comparisons of number of peptides which bound maternal serum samples were made between the transmission group and the nontransmission group. The data was analyzed using the unpaired student's test. For the determination of differences in the binding of specific peptides between transmission and non-transmission groups, the Spearman's rank-order correlation test was performed.

[1] = Serum No. 1, Non-Transmission Group
[2] = Serum No. 2, Non-Transmission Group
[3] = Serum No. 3, Non-Transmission Group
[4] = Serum No. 4, Transmission Group
[5] = Serum No. 5, Transmission Group
[6] = Serum No. 6, Non-Transmission Group
[7] = Serum No. 7, Non-Transmission Group
[8] = Serum No. 8, Non-Transmission Group
[9] = Serum No. 9, Non-Transmission Group
[10] = Serum No. 10, Transmission Group
[11] = Serum No. 11, Non-Transmission Group
[12] = Serum No. 12, Non-Transmission Group
[13] = Serum No. 13, Transmission Group
[14] = Serum No. 14, Transmission Group
[15] = Serum No. 15, Transmission Group
[16] = Serum No. 16, Non-Transmission Group
[17] = Serum No. 17, Non-Transmission Group
[18] = Serum No. 18, Non-Transmission Group
[19] = Serum No. 19, Transmission Group
[20] = Serum No. 20, Non-Transmission Group

Sequence | Binding of maternal HIV+ serum to peptide (sera/NHS ratio) [1] | Binding of maternal HIV+ serum to peptide (sera/NHS ratio) [2] | Binding of maternal HIV+ serum to peptide (sera/NHS ratio) [3] | Binding of maternal HIV+ serum to peptide (sera/NHS ratio) [4] | Binding of maternal HIV+ serum to peptide (sera/NHS ratio) [5] | Binding of maternal HIV+ serum to peptide (sera/NHS ratio) [6] | Binding of maternal HIV+ serum to peptide (sera/NHS ratio) [7] | Binding of maternal HIV+ serum to peptide (sera/NHS ratio) [8] | Binding of maternal HIV+ serum to peptide (sera/NHS ratio) [9] | Binding of maternal HIV+ serum to peptide (sera/NHS ratio) [10] | Binding of maternal HIV+ serum to peptide (sera/NHS ratio) [11] | Binding of maternal HIV+ serum to peptide (sera/NHS ratio) [12] | Binding of maternal HIV+ serum to peptide (sera/NHS ratio) [13] | Binding of maternal HIV+ serum to peptide (sera/NHS ratio) [14] | Binding of maternal HIV+ serum to peptide (sera/NHS ratio) [15] | Binding of maternal HIV+ serum to peptide (sera/NHS ratio) [16] | Binding of maternal HIV+ serum to peptide (sera/NHS ratio) [17] | Binding of maternal HIV+ serum to peptide (sera/NHS ratio) [18] | Binding of maternal HIV+ serum to peptide (sera/NHS ratio) [19] | Binding of maternal HIV+ serum to peptide (sera/NHS ratio) [20] | also measured
CTRPNNNTRKSIRIQ [Peptide 106] | - (specific OD450 or cpm of sera sample binding to peptide divided by the specific OD450 or cpm of NHS sample binding to peptide, which value is less than 2) | - (specific OD450 or cpm of sera sample binding to peptide divided by the specific OD450 or cpm of NHS sample binding to peptide, which value is less than 2) | - (specific OD450 or cpm of sera sample binding to peptide divided by the specific OD450 or cpm of NHS sample binding to peptide, which value is less than 2) | - (specific OD450 or cpm of sera sample binding to peptide divided by the specific OD450 or cpm of NHS sample binding to peptide, which value is less than 2) | - (specific OD450 or cpm of sera sample binding to peptide divided by the specific OD450 or cpm of NHS sample binding to peptide, which value is less than 2) | - (specific OD450 or cpm of sera sample binding to peptide divided by the specific OD450 or cpm of NHS sample binding to peptide, which value is less than 2) | - (specific OD450 or cpm of sera sample binding to peptide divided by the specific OD450 or cpm of NHS sample binding to peptide, which value is less than 2) | - (specific OD450 or cpm of sera sample binding to peptide divided by the specific OD450 or cpm of NHS sample binding to peptide, which value is less than 2) | - (specific OD450 or cpm of sera sample binding to peptide divided by the specific OD450 or cpm of NHS sample binding to peptide, which value is less than 2) | - (specific OD450 or cpm of sera sample binding to peptide divided by the specific OD450 or cpm of NHS sample binding to peptide, which value is less than 2) | - (specific OD450 or cpm of sera sample binding to peptide divided by the specific OD450 or cpm of NHS sample binding to peptide, which value is less than 2) | - (specific OD450 or cpm of sera sample binding to peptide divided by the specific OD450 or cpm of NHS sample binding to peptide, which value is less than 2) | ++ (which value is greater than 3) | ++ (which value is greater than 3) | ++ (which value is greater than 3) | + (which value is between 2 to 3) | ++ (which value is greater than 3) | - (specific OD450 or cpm of sera sample binding to peptide divided by the specific OD450 or cpm of NHS sample binding to peptide, which value is less than 2) | - (specific OD450 or cpm of sera sample binding to peptide divided by the specific OD450 or cpm of NHS sample binding to peptide, which value is less than 2) | + (which value is between 2 to 3) | Percentage of sera samples demonstrating binding to peptide, non-transmitter (Non-transmitter group, n = 13): 23.0%; Percentage of sera samples demonstrating binding to peptide, transmitter (Transmitter / transmission group, n = 7): 42.9%; Percent of the maternal serum samples that bound to the peptide (all 20 samples): 30%
KQFINMWQEVGKAMYAPP [Peptide B138] | + (which value is between 2 to 3) | + (which value is between 2 to 3) | - (specific OD450 or cpm of sera sample binding to peptide divided by the specific OD450 or cpm of NHS sample binding to peptide, which value is less than 2) | + (which value is between 2 to 3) | + (which value is between 2 to 3) | + (which value is between 2 to 3) | ++ (which value is greater than 3) | ++ (which value is greater than 3) | - (specific OD450 or cpm of sera sample binding to peptide divided by the specific OD450 or cpm of NHS sample binding to peptide, which value is less than 2) | - (specific OD450 or cpm of sera sample binding to peptide divided by the specific OD450 or cpm of NHS sample binding to peptide, which value is less than 2) | - (specific OD450 or cpm of sera sample binding to peptide divided by the specific OD450 or cpm of NHS sample binding to peptide, which value is less than 2) | - (specific OD450 or cpm of sera sample binding to peptide divided by the specific OD450 or cpm of NHS sample binding to peptide, which value is less than 2) | - (specific OD450 or cpm of sera sample binding to peptide divided by the specific OD450 or cpm of NHS sample binding to peptide, which value is less than 2) | - (specific OD450 or cpm of sera sample binding to peptide divided by the specific OD450 or cpm of NHS sample binding to peptide, which value is less than 2) | - (specific OD450 or cpm of sera sample binding to peptide divided by the specific OD450 or cpm of NHS sample binding to peptide, which value is less than 2) | - (specific OD450 or cpm of sera sample binding to peptide divided by the specific OD450 or cpm of NHS sample binding to peptide, which value is less than 2) | - (specific OD450 or cpm of sera sample binding to peptide divided by the specific OD450 or cpm of NHS sample binding to peptide, which value is less than 2) | - (specific OD450 or cpm of sera sample binding to peptide divided by the specific OD450 or cpm of NHS sample binding to peptide, which value is less than 2) | - (specific OD450 or cpm of sera sample binding to peptide divided by the specific OD450 or cpm of NHS sample binding to peptide, which value is less than 2) | - (specific OD450 or cpm of sera sample binding to peptide divided by the specific OD450 or cpm of NHS sample binding to peptide, which value is less than 2) | Number of maternal sera binding to peptide (20 maternal sera): Seven; Number of binding maternal sera from the transmission group (vertical transmission group (7 sera)): two
